Data published in US20150105252A1, “SUBSTITUTED PYRAZOLES AS HERBICIDES” (E I DU PONT DE NEMOURS AND COMPANY, priority 2013, published 2015).

What was measured:
Details in all cases: scale 0 to 100
radish, wild [1] = experiment: Test D preemergence; type: in vivo, Raphanus raphanistrum
Text: (§1) Seeds of plant species selected from bluegrass (annual bluegrass, Poa annua), blackgrass (Alopecurus myosuroides), canarygrass (littleseed canarygrass, Phalaris minor), chickweed (common chickweed, Stellaria media), galium (catchweed bedstraw, Galium aparine), bromegrass, downy (downy bromegrass, Bromus tectorum), field poppy (Papaver rhoeas), field violet (Viola arvensis), foxtail, green (green foxtail, Setaria viridis), deadnettle (henbit deadnettle, Lamium amplexicaule), ryegrass, Italian (Italian ryegrass, Lolium multiflorum), kochia (Kochia scoparia), lambsquarters (Chenopodium album), oilseed rape (Brassica napus), pigweed (redroot pigweed, Amaranthus retroflexus), chamomile (scentless chamomile, Matricaria inodora), speedwell (bird's-eye speedwell, Veronica persica), barley, spring (spring barley, Hordeum vulgare), wheat, spring (spring wheat, Triticum aestivum), buckwheat, wild (wild buckwheat, Polygonum convolvulus), mustard, wild (wild mustard, Sinapis arvensis), oat, wild (wild oat, Avena fatua), radish, wild (wild radish, Raphanus raphanistrum), windgrass (Apera spica-venti), Russian thistle (Salsola kali), barley, winter (winter barley, Hordeum vulgare), and wheat, winter (winter wheat, Triticum aestivum) were planted into a silt loam soil and treated preemergence with test chemicals formulated in a non-phytotoxic solvent mixture which included a surfactant.
(§2) At the same time, these species were planted in pots containing Redi-Earth® planting medium (Scotts Company, 14111 Scottslawn Road, Marysville, Ohio 43041) comprising spaghnum peat moss, vermiculite, wetting agent and starter nutrients and treated with postemergence applications of the test chemicals formulated in the same manner. Plants ranged in height from 2 to 18 cm (1- to 4-leaf stage). Treated plants and controls were maintained in a controlled growth environment for 14 to 21 days after which time all species were compared to controls and visually evaluated. Plant response ratings, summarized in Table D, are based on a scale of 0 to 100 where 0 is no effect and 100 is complete control. A dash (-) response means no test result.

barley, spring = experiment: Test D preemergence; type: in vivo, Hordeum vulgare
Text: as §1, §2

barley, winter = experiment: Test D preemergence; type: in vivo, Hordeum vulgare
Text: as §1, §2

oilseed rape = experiment: Test D preemergence; type: in vivo, Brassica napus
Text: as §1, §2

deadnettle = experiment: Test D postemergence; type: in vivo, Lamium amplexicaule
Text: as §1, §2

blackgrass = experiment: Test D postemergence; type: in vivo, Alopecurus myosuroides
Text: as §1, §2

field violet = experiment: Test D preemergence; type: in vivo, Viola arvensis
Text: as §1, §2

mustard, wild = experiment: Test D preemergence; type: in vivo, Sinapis arvensis
Text: as §1, §2

radish, wild [2] = experiment: Test D postemergence; type: in vivo, Raphanus raphanistrum
Text: as §1, §2

Row | SMILES | Plant response rating, Radish, Wild (radish, wild [1]; 62 g ai/ha) | Plant response rating, Radish, Wild (radish, wild [1]; 125 g ai/ha) | Plant response rating, Radish, Wild (radish, wild [1]; 250 g ai/ha) | Plant response rating, Barley, Spring (barley, spring; 31 g ai/ha) | Plant response rating, Barley, Spring (barley, spring; 62 g ai/ha) | Plant response rating, Barley, Spring (barley, spring; 125 g ai/ha) | Plant response rating, Barley, Spring (barley, spring; 250 g ai/ha) | Plant response rating, Barley, Winter (barley, winter; 31 g ai/ha) | Plant response rating, Barley, Winter (barley, winter; 62 g ai/ha) | Plant response rating, Barley, Winter (barley, winter; 125 g ai/ha) | Plant response rating, Barley, Winter (barley, winter; 250 g ai/ha) | Plant response rating, Oilseed Rape (oilseed rape; 62 g ai/ha) | Plant response rating, Oilseed Rape (oilseed rape; 125 g ai/ha) | Plant response rating, Oilseed Rape (oilseed rape; 250 g ai/ha) | Deadnettle plant response rating (deadnettle; Postemergence, 31 g ai/ha) | Deadnettle plant response rating (deadnettle; Postemergence, 125 g ai/ha) | Deadnettle plant response rating (deadnettle; Postemergence, 250 g ai/ha) | Deadnettle plant response rating (deadnettle; postemergence, 62 g ai/ha) | Blackgrass plant response rating (blackgrass; Postemergence, 31 g ai/ha) | Blackgrass plant response rating (blackgrass; Postemergence, 125 g ai/ha) | further results
1 | CCc1cc(C(=O)NC(C)C)nn1Cc1ccnc(C(F)(F)F)c1 [Compound 103] | 100 | 100 | 100 | 15 | 35 | 80 | 100 | 0 | 35 | 60 | 85 | 30 | 35 | 95 | 20 | 25 | 30 | 25 | 5 | 20 | Plant response rating, Radish, Wild (radish, wild [1]; 31 g ai/ha): 95; Plant response rating, Oilseed Rape (oilseed rape; 31 g ai/ha): 25; Blackgrass plant response rating (blackgrass; Postemergence, 250 g ai/ha): 35; Blackgrass plant response rating (blackgrass; postemergence, 62 g ai/ha): 10; Plant response rating, Field Violet (field violet; 31 g ai/ha): 95; Plant response rating, Field Violet (field violet; 62 g ai/ha): 100; Plant response rating, Field Violet (field violet; 125 g ai/ha): 100; Plant response rating, Field Violet (field violet; 250 g ai/ha): 100; Plant response rating, Mustard, Wild (mustard, wild; 31 g ai/ha): 55; Plant response rating, Mustard, Wild (mustard, wild; 62 g ai/ha): 60; Plant response rating, Mustard, Wild (mustard, wild; 125 g ai/ha): 75; Plant response rating, Mustard, Wild (mustard, wild; 250 g ai/ha): 100; Radish, Wild plant response rating (radish, wild [2]; Postemergence, 31 g ai/ha): 25; Radish, Wild plant response rating (radish, wild [2]; Postemergence, 125 g ai/ha): 50; Radish, Wild plant response rating (radish, wild [2]; Postemergence, 250 g ai/ha): 60; Radish, Wild plant response rating (radish, wild [2]; postemergence, 62 g ai/ha): 35
2 | CCCc1cc(C(=O)NCC(F)(F)F)nn1Cc1cc(C(F)(F)F)nn1C [Compound 138] | 100 | 100 | 100 | 0 | 5 | 40 | 75 | 5 | 35 | 60 | 70 | 40 | 100 | 100 | 65 | 75 | 85 | 65 | 25 | 40 | Blackgrass plant response rating (blackgrass; Postemergence, 250 g ai/ha): 75; Blackgrass plant response rating (blackgrass; postemergence, 62 g ai/ha): 25; Plant response rating, Field Violet (field violet; 62 g ai/ha): 100; Plant response rating, Field Violet (field violet; 125 g ai/ha): 100; Plant response rating, Field Violet (field violet; 250 g ai/ha): 100; Plant response rating, Mustard, Wild (mustard, wild; 62 g ai/ha): 100; Plant response rating, Mustard, Wild (mustard, wild; 125 g ai/ha): 100; Plant response rating, Mustard, Wild (mustard, wild; 250 g ai/ha): 100; Radish, Wild plant response rating (radish, wild [2]; Postemergence, 31 g ai/ha): 80; Radish, Wild plant response rating (radish, wild [2]; Postemergence, 125 g ai/ha): 100; Radish, Wild plant response rating (radish, wild [2]; Postemergence, 250 g ai/ha): 95; Radish, Wild plant response rating (radish, wild [2]; postemergence, 62 g ai/ha): 80
3 | CCOc1cc(C(=O)NC2CC2)nn1Cc1ccnc(C(F)(F)F)c1 [Compound 189] | 70 | 100 | 100 | 0 | 40 | 70 | 85 | 10 | 35 | 60 | 65 | 55 | 80 | 100 | 45 | 55 | 75 | 45 | 10 | 15 | Blackgrass plant response rating (blackgrass; Postemergence, 250 g ai/ha): 20; Blackgrass plant response rating (blackgrass; postemergence, 62 g ai/ha): 10; Plant response rating, Field Violet (field violet; 62 g ai/ha): 100; Plant response rating, Field Violet (field violet; 125 g ai/ha): 100; Plant response rating, Field Violet (field violet; 250 g ai/ha): 100; Plant response rating, Mustard, Wild (mustard, wild; 62 g ai/ha): 100; Plant response rating, Mustard, Wild (mustard, wild; 125 g ai/ha): 100; Plant response rating, Mustard, Wild (mustard, wild; 250 g ai/ha): 100; Radish, Wild plant response rating (radish, wild [2]; Postemergence, 31 g ai/ha): 60; Radish, Wild plant response rating (radish, wild [2]; Postemergence, 125 g ai/ha): 65; Radish, Wild plant response rating (radish, wild [2]; Postemergence, 250 g ai/ha): 85; Radish, Wild plant response rating (radish, wild [2]; postemergence, 62 g ai/ha): 60
